# From patent US10131663B2, “Chemical compounds” (AstraZeneca AB, priority 2016, dated 2018)
# Where two headings read alike, the source gives them in different places.
# Assays:
# [1] = target: recombinant human Estrogen Receptor alpha ligand binding domain (ER alpha-LBD (GST)) (Homo sapiens (Human), UniProt P03372); assay: ERα binding assay (LanthaScreen TR-FRET competition)
# Summary of the method: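 Competition binding to GST-tagged human ERα ligand-binding domain, read by LanthaScreen TR-FRET: Tb-anti-GST antibody labels the receptor and compounds displace a fluorescent tracer, lowering the signal. IC50 was taken from dose-response curve fitting.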
# [2] = target: T1, Estrogen Receptor (ERα) in MCF-7 cells (Homo sapiens (Human), UniProt P03372); assay: MCF-7 ER down-regulation assay (immuno-fluorescence); assay type: cell-based
# Summary of the method: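 Compounds dispensed acoustically from DMSO stocks onto MCF-7 cells; cells fixed 20 min at room temperature, then automated immunostaining for ERα with overnight incubation at 4° C. Read-out is mean total ER fluorescence intensity normalized to cell number (intensity per cell), with curve fitting for concentration-response values.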
# [3] = target: estrogen receptor (ERα) in CAMA-1 cells (Homo sapiens (Human), UniProt P03372); assay: Western blotting assay, ER down-regulation in CAMA-1; assay type: cell-based; conditions: 100 nM compound, 48 h, normalised to 100 nM fulvestrant
# Procedure: (§1) Cells were incubated with compounds (100 nM) or vehicle control (0.1% DMSO) for 48 h at 37° C., 5% CO2 before washing once with PBS and lysing with 80 μl lysis buffer (25 mM Tris/HCl, 3 mM EDTA, 3 mM EGTA, 50 mM NaF, 2 mM sodium orthovanadate, 0.27 M sucrose, 10 mM β-glycerophosphate, 5 mM sodium pyrophosphate, 0.5% TritonX-100, pH 6.8) on ice.
# (§2) Samples were boiled for 10 min at 95° C. and then frozen at −20° C. until ready for use.
# (§3) The blot was stained with Ponceau S (P7170, Sigma) and cut according to appropriate molecular weight markers.
# (§4) Membranes were blocked for 1 hour at room temp in 5% Marvel (w/v) in phosphate-buffered saline containing 0.05% Tween™ 20 (PBS/Tween). Blots were then incubated with anti-ERα (SP1) rabbit monoclonal antibody (Thermofisher) diluted 1:1000 at 4° C. overnight (with gentle shaking) followed by several washes with PBS/Tween. […] All antibodies were made up in 5% Marvel (w/v) in PBS/Tween.
# (§5) Down-regulation of the ERα receptor was normalised to the vehicle control (0% down-regulation) and the 100 nM fulvestrant control (100% down-regulation) run within the same gel.
# [4] = target: T1, Estrogen Receptor (ERα) in MCF-7 cells; assay: Western blotting assay, ER down-regulation in MCF-7; assay type: cell-based; conditions: 100 nM compound, 48 h, normalised to 100 nM fulvestrant
# Procedure: as §1, §2, §3, §4, §5
# [5] = log D (shake flask, 1-octanol/aqueous buffer); assay type: physicochemical
# Summary of the method: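 Distribution between 1-octanol and aqueous buffer at pH 7.4 was measured by shake flask, with compounds run in mixtures of ten. Relative concentrations in each phase were quantified by UPLC with quantitative MS. Caffeine served as a low-log D QC sample in all runs.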
# [6] = Thermodynamic solubility (shake-flask); assay type: physicochemical; conditions: aqueous phosphate buffer, 25 °C, pH 7.4, aqueous buffer, thermodynamic from solid, aqueous phosphate buffer pH 7.4, 24 hours
# Summary of the method: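 Shake-flask method starting from 10 mM DMSO stocks, which are dried before use. Residue equilibrated 24 h at 25° C. in aqueous phosphate buffer, pH 7.4. Dissolved fraction separated and quantified by UPLC/MS/MS, with QC samples in each run.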
# hERG potassium channel = hERG potassium channel (Homo sapiens (Human), UniProt Q12809); assay: hERG binding assay (automated patch clamp, CHO cells); assay type: cell-based; conditions: CHO cell line, Nanion Syncropatch 384PE
# Procedure: Reagent preparations include: • 1.
# Cell preparations: • 1. If using cell culture; cells to be incubated at 30° C. for approximately 4-6 days prior to being used. Day of assay lift cells using accutase and re-suspend in 20 ml cell buffer to a density of 0.8 to 1e6 cells/ml. • 2. If using assay ready cryovials; rapidly thaw two cryovials at 37° C. and slowly pipette into 23 ml external solution • 3.
# All compounds were acoustically dispensed in quadruplicate using a Labcyte Echo. […] Fill 384 well medium resistance 4 hole chips with 40 μl external buffer and perfuse internal buffer to the underside of plate. • 2. Dispense 20 μl of cells into each well of the chip followed by 20 μl of seal enhancer. • 3. Remove 40 μl of reagent from each well to the wash station, leaving a residual volume of 40 μl • 4. Dispense 40 μl of reference buffer with a removal step of 40 μl after 3 min, repeat this step. • 5.
# hERG-mediated currents were elicited using a voltage step protocol consisting of acontinuous holding voltage of −80 mV, with a 500 ms step to 60 mV followed by a 500 ms step to −40 mV every 15 seconds. hERG current magnitude was measured automatically from the leak-subtracted traces by the Nanion software by taking the peak of the hERG “tail” current at −40 mV every 15 seconds and taking the last three of these responses for each concentration to generate the concentration-effect curve.
# Calculation of results is performed using APC package within Genedata. For the routine normalization of well data with Neutral and Inhibitor control well groups as reference, GeneData Assay Analyzer uses the following equation to normalize the signal values to the desired signal range:
# [formula] • x is the measured raw signal value of a well • is the median of the measured signal values for the Central Reference (Neutral) wells on a plate • is the median of the measured signal values for the Scale Reference (Inhibitor) wells on a plate • CR is the desired median normalized value for the Central Reference (Neutral) • SR is the desired median normalized value for the Scale Reference (Inhibitor)
# [7] = Human plasma protein binding (equilibrium dialysis); assay type: in vitro ADME; conditions: dialysis 18 hours
# Summary of the method: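 Fraction unbound (fu %) in human plasma, from LC/MSMS of plasma and buffer sides (7-point plasma calibration) after 18 h rapid equilibrium dialysis. Single determinations, with compounds pooled up to 10 per plasma pool.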
# [8] = Human Caco-2 bidirectional permeability A to B and B to A; assay type: in vitro ADME; conditions: for Papp at 2 h: Caco-2, 2 hours, pH 7.4; for efflux ratio at 2 h: Caco-2, pH 7.4
# Procedure: An automated assay was used to determine the bidirectional permeability (efflux and uptake) of compounds in Caco-2 cells carried out over 2 hours at pH 7.4.
# The efflux ratio (ER) can be determined using the following equation: ER=Papp(B-A)/Papp(A-B) Where Papp (B-A) indicates the apparent permeability coefficient in basolateral to apical direction, and Papp (A-B) indicates the apparent permeability coefficient in apical to basolateral direction. Human Caco-2 Passive Permeability A to B Papp
# [9] = TR-FRET, displacement of Fluormone ES2
# [10] = 1-octanol/aqueous buffer, pH 7.4, pH 7.4, 1-octanol/aqueous buffer
# [11] = pH 7.4, 1-octanol/aqueous buffer
# Chain of estrogen receptor (ERα) in CAMA-1 cells (P03372 whole entry): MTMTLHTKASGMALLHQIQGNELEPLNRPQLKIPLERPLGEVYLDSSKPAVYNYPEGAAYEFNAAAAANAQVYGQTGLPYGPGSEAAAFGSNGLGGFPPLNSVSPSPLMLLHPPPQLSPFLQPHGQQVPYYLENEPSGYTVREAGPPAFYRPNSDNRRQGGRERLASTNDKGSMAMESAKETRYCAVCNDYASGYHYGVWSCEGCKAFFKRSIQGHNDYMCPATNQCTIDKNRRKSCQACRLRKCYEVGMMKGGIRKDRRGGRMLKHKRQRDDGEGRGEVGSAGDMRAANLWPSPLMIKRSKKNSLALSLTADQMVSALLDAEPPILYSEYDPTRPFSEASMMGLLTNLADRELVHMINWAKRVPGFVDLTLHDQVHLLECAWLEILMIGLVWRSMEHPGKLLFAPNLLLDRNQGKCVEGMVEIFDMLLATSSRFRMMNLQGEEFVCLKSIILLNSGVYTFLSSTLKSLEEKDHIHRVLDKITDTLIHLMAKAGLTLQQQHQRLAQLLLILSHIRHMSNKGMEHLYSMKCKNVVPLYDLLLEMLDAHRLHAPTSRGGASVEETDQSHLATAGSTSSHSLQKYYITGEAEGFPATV
# T1 sequence (P03372 whole entry): as above
# Chain of recombinant human Estrogen Receptor alpha ligand binding domain (ER alpha-LBD (GST)) (P03372 307-554): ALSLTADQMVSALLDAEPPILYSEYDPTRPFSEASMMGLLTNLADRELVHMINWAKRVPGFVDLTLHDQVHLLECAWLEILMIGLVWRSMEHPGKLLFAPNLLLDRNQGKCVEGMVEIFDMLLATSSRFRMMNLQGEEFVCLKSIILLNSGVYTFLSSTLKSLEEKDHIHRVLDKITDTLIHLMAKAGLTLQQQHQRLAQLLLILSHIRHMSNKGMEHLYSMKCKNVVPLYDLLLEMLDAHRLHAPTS
# Chain of hERG potassium channel (Q12809 whole entry): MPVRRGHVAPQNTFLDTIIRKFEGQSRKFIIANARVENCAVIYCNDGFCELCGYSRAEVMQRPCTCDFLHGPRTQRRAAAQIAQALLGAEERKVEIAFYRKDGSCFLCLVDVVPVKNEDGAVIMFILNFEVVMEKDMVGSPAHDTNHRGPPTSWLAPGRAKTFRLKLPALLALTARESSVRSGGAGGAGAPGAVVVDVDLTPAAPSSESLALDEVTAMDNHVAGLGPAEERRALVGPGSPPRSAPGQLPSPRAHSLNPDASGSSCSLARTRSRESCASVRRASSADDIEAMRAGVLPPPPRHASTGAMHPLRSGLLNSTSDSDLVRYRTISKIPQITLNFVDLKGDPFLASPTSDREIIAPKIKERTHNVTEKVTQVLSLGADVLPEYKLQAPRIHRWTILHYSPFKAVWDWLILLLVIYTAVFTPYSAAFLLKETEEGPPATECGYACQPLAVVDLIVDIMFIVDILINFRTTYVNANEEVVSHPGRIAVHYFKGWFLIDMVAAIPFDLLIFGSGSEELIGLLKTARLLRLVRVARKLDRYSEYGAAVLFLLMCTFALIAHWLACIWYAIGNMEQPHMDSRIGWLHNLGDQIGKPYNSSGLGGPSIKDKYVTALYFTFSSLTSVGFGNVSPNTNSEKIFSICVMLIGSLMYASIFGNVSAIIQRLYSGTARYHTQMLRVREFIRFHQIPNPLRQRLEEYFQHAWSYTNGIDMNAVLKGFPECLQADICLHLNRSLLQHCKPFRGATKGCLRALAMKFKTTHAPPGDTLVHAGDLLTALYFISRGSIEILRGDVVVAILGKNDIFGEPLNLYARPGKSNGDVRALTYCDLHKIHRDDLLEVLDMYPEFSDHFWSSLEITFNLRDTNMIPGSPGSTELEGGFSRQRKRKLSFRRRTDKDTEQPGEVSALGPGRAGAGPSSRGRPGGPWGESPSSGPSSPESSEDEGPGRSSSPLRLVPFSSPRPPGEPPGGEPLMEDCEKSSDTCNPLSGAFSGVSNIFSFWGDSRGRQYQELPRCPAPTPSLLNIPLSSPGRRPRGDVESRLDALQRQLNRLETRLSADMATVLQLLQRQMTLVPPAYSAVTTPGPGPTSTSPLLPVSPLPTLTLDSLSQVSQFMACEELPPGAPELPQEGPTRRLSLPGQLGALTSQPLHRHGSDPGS
SMILES,"IC50 [1, 9] [nM]",IC50 [2] [nM],CAMA1 Western % ER deg vs Fv [3] [%],MCF7 Western % ER deg vs Fv [4] [%],"logD [5, 10]",solubility at 24 h [6] [µM],IC50 (hERG potassium channel) [µM],Human plasma protein binding (% free) [7] [% free],"logD [5, 11]",IC50 [1] [nM],Papp at 2 h [8] [×10⁻⁶ cm/s],efflux ratio at 2 h [8]
"C[C@@H]1Cc2c(ccc3[nH]ncc23)[C@@H](c2c(F)cc(NC3CN(CCCF)C3)cc2F)N1CC(F)F [Example 49, N-(4-((6S,8R)-7-(2,2-difluoroethyl)-8-methyl-6,7,8,9-tetrahydro-3H-pyrazolo[4,3-f]isoquinolin-6-yl)-3,5-difluorophenyl)-1-(3-fluoropropyl)azetidin-3-amine]",1.5,0.075,99,98,3.8,163,8.2,,,,,
"COc1cc(NC2CN(CCC(F)(F)F)C2)ccc1[C@@H]1c2ccc3[nH]ncc3c2C[C@@H](C)N1CC1(F)CC1 [Example 56, N-(4-((6S,8R)-7-((1-fluorocyclopropyl)methyl)-8-methyl-6,7,8,9-tetrahydro-3H-pyrazolo[4,3-f]isoquinolin-6-yl)-3-methoxyphenyl)-1-(3,3,3-trifluoropropyl)azetidin-3-amine]",8.2,0.58,52,61,3.6,377,,,,,,
"COc1cc(NC2CN(CCCF)C2)ncc1[C@@H]1c2ccc3[nH]ncc3c2C[C@@H](C)N1CC1(F)CC1 [Example 9, 5-((6S,8R)-7-((1-fluorocyclopropyl)methyl)-8-methyl-6,7,8,9-tetrahydro-3H-pyrazolo[4,3-f]isoquinolin-6-yl)-N-(1-(3-fluoropropyl)azetidin-3-yl)-4-methoxypyridin-2-amine]",360,> 300,25,−13,1,> 1000,,21,,,,
"C[C@@H]1Cc2c(ccc3[nH]ncc23)[C@@H](c2ccc(OC3CN(CCCF)C3)cn2)N1CC(F)F [Example 26, (6S,8R)-7-(2,2-difluoroethyl)-6-(5-((1-(3-fluoropropyl)azetidin-3-yl)oxy)pyridin-2-yl)-8-methyl-6,7,8,9-tetrahydro-3H-pyrazolo[4,3-f]isoquinoline]",6.7,0.52,97,97,3,258,,22,,,,
"COc1cc(OC2CN(CCCF)C2)ccc1[C@@H]1c2ccc3[nH]ncc3c2C[C@@H](C)N1CC1(F)CC1 [Example 7, (6S,8R)-7-((1-fluorocyclopropyl)methyl)-6-(4-((1-(3-fluoropropyl)azetidin-3-yl)oxy)-2-methoxyphenyl)-8-methyl-6,7,8,9-tetrahydro-3H-pyrazolo[4,3-f]isoquinoline]",8.4,0.4,90,90,,470,,11,3.5,,,
"COc1cc(NC2CN(CCCF)C2)c(F)cc1[C@@H]1c2ccc3[nH]ncc3c2C[C@@H](C)N1CC1(F)CC1 [Example 53, N-(2-fluoro-4-((6S,8R)-7-((1-fluorocyclopropyl)methyl)-8-methyl-6,7,8,9-tetrahydro-3H-pyrazolo[4,3-f]isoquinolin-6-yl)-5-methoxyphenyl)-1-(3-fluoropropyl)azetidin-3-amine]",5.7,0.26,46,81,3.2,691,,11,,,,
"COc1cc(NC2CN(CCCF)C2)ccc1[C@@H]1c2ccc3[nH]ncc3c2C[C@@H](C)N1CC(F)(F)CO [Example 60, 2,2-difluoro-3-((6S,8R)-6-(4-((1-(3-fluoropropyl)azetidin-3-yl)amino)-2-methoxyphenyl)-8-methyl-3,6,8,9-tetrahydro-7H-pyrazolo[4,3-f]isoquinolin-7-yl)propan-1-ol]",,0.19,,,,593,11,23,2.5,4.7,0.7,34
"C[C@@H]1Cc2c(ccc3[nH]ncc23)[C@@H](c2ccc(NC3CN(CCCF)C3)c(F)n2)N1CC(F)F [Example 47, 6-((6S,8R)-7-(2,2-difluoroethyl)-8-methyl-6,7,8,9-tetrahydro-3H-pyrazolo[4,3-f]isoquinolin-6-yl)-2-fluoro-N-(1-(3-fluoropropyl)azetidin-3-yl)pyridin-3-amine]",1.2,0.41,,,2.6,> 1000,,,,,18,1.1
"C[C@@H]1Cc2c(ccc3[nH]ncc23)[C@@H](c2cnc(NC3CN(CCCF)C3)cn2)N1CC(F)(F)F [Example 42, N-(1-(3-fluoropropyl)azetidin-3-yl)-5-((6S,8R)-8-methyl-7-(2,2,2-trifluoroethyl)-6,7,8,9-tetrahydro-3H-pyrazolo[4,3-f]isoquinolin-6-yl)pyrazin-2-amine]",3.8,0.28,79,92,2.4,712,7.9,,,,,
"C[C@@H]1Cc2c(ccc3[nH]ncc23)[C@@H](c2c(F)cc(NC3CN(CCCF)C3)cc2F)N1CC(F)(F)F [Example 8, N-(3,5-difluoro-4-((6S,8R)-8-methyl-7-(2,2,2-trifluoroethyl)-6,7,8,9-tetrahydro-3H-pyrazolo[4,3-f]isoquinolin-6-yl)phenyl)-1-(3-fluoropropyl)azetidin-3-amine]",2,0.055,100,101,4.4,90,,0.99,,,,
